Values joined by “and” are separate entries in the source; they are usually repeats but may differ in a detail not shown here. Identical values can stand only once.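 Where inhibition never reached the appropriate level, the endpoint shown equals the highest concentration tested. Otherwise, values were interpolated linearly from a five-concentration, 48-hour dose response in 96-well plates. GI50: concentration for 50% inhibition of growth. TGI: total growth inhibition.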
Tests used:
Assay in all cases: DTP human tumour cell line panel, 48 h
HCT-116 colon = system: HCT-116 colon
786-0 renal = system: 786-0 renal
MOLT-4 leukemia = system: MOLT-4 leukemia
OVCAR-5 ovarian = system: OVCAR-5 ovarian
SK-MEL-28 melanoma = system: SK-MEL-28 melanoma
TK-10 renal = system: TK-10 renal
NCI-H460 lung = system: NCI-H460 lung
NCI-H23 lung = system: NCI-H23 lung
HCT-15 colon = system: HCT-15 colon
OVCAR-3 ovarian = system: OVCAR-3 ovarian

Structure (SMILES)	TGI (HCT-116 colon)	TGI (786-0 renal)	TGI (MOLT-4 leukemia)	TGI (OVCAR-5 ovarian)	TGI (SK-MEL-28 melanoma)	TGI (TK-10 renal)	TGI (NCI-H460 lung)	TGI (NCI-H23 lung)	TGI (HCT-15 colon)	TGI (OVCAR-3 ovarian)	GI50 (HCT-116 colon)	GI50 (786-0 renal)	GI50 (MOLT-4 leukemia)	GI50 (OVCAR-5 ovarian)	GI50 (SK-MEL-28 melanoma)	GI50 (TK-10 renal)	GI50 (NCI-H460 lung)	GI50 (NCI-H23 lung)	GI50 (HCT-15 colon)	GI50 (OVCAR-3 ovarian)
C=CCCCCCC(O)C(O)C/C=C\C/C=C\CC (stereo not given)	> 18.8 µM	> 18.8 µM	> 18.8 µM	> 18.8 µM	> 18.8 µM	> 18.8 µM	> 18.8 µM	> 18.8 µM	> 18.8 µM	> 18.8 µM	–	–	–	–	–	–	–	–	–	–
C=C(C)[C@H](O)C(O)CC(C)[C@@H]1CCC23CC12CCC1[C@@]2(C)CCC(OC(C)=O)C(C)(C)C2CC(OC2OC(COC(C)=O)C(O)C(O)C2O)[C@]13C (stereo not given in full)	9.27 µM	13.7 µM	8.94 µM	13.9 µM	13.3 µM	12.5 µM	11.5 µM	14 µM	10.4 µM	11.6 µM	–	–	–	–	–	–	–	–	–	–
C[C@@H]1C[C@@]2(O[C@@H]2C)C(=O)O[C@@H]2CCN3CC=C(COC(=O)[C@]1(C)O)[C@H]23	> 100 µM	> 100 µM	> 100 µM	> 100 µM	> 100 µM	> 100 µM	> 100 µM	> 100 µM	> 100 µM	> 100 µM	–	–	–	–	–	–	–	–	–	–
CC1/C(=N/Nc2ccc([N+](=O)[O-])cc2)CC2C3(C)CCC2(C(C)C(=O)O)C(=O)C13 (stereo not given)	> 100 µM	> 100 µM	> 100 µM	> 100 µM	> 100 µM	> 100 µM	> 100 µM	> 100 µM	> 100 µM	> 100 µM	6.97 µM	11.3 µM	22.5 µM	> 100 µM	> 100 µM	9.98 µM	5.88 µM	29.1 µM	4.22 µM	1.72 µM
Oc1c(N=Nc2ccccc2)c2ccccc2c2ccc3ccccc3c12	> 100 µM	> 100 µM	> 100 µM	> 100 µM	> 100 µM	> 100 µM	> 100 µM	> 100 µM	> 100 µM	> 100 µM	–	–	–	–	–	–	–	–	–	–
CCCN(CCC)C(=O)[C@H](CC)[C@@H]1CC[C@@H](C)[C@@H]([C@H](C)[C@@H](O)[C@@H](C)C(=O)[C@H](CC)C2O[C@]3(C=C[C@@H](O)[C@]4(CC[C@@](C)([C@H]5CC[C@](O)(CC)[C@H](C)O5)O4)O3)[C@H](C)C[C@@H]2C)O1 (stereo not given in full)	5.98 µM	9 µM	6.41 µM	5.27 µM	17.9 µM	68.3 µM	4.62 µM	7.01 µM	5.61 µM	4.46 µM	2.16 µM	2.79 µM	2.39 µM	2.09 µM	4.5 µM	3.3 µM	2.07 µM	2.52 µM	2.24 µM	1.84 µM
COC(=O)c1cc2oc(/C=C3\SC(=S)N(NC(C)=O)C3=O)cc2n1Cc1ccccc1	14.3 µM	18.6 µM	> 50 µM	19.1 µM	38.5 µM	15.5 µM	37.1 µM	16.8 µM	8.56 µM	2.66 µM	7.62 µM	8.2 µM	1.97 µM	7.36 µM	9.06 µM	6.14 µM	1.28 µM	7.12 µM	1.54 µM	0.53 µM
N#CN1CCC=C(c2cc3ccccc3[nH]2)C1	> 448 µM	> 448 µM	> 448 µM	> 448 µM	> 448 µM	> 448 µM	> 448 µM	> 448 µM	> 448 µM	339 µM	–	–	–	–	–	–	–	–	–	–
O=C(N/N=C\c1ccc(N(CCCl)CCCl)cc1Cl)c1cccnc1	36.6 µM	56.6 µM	42.7 µM	11.3 µM	> 100 µM	7.84 µM	12.7 µM	54.9 µM	> 100 µM	14.3 µM	3.23 µM	15.1 µM	10.5 µM	0.981 µM	26.5 µM	0.991 µM	0.192 µM	9.59 µM	29 µM	3.37 µM
O=C(NCP(=O)(O)O)c1cccnc1	> 100 µM	> 100 µM	> 100 µM	> 100 µM	> 100 µM	> 100 µM	> 100 µM	> 100 µM	> 100 µM	> 100 µM	–	–	–	–	–	–	–	–	–	–
OC(CNC1CCCC1)Cn1c2ccccc2c2ccccc21 (stereo not given)	> 100 µM	> 100 µM	> 100 µM	> 100 µM	> 100 µM	> 100 µM	> 100 µM	83.7 µM	> 100 µM	> 100 µM	67.3 µM	36.1 µM	> 100 µM	35.9 µM	> 100 µM	27.5 µM	> 100 µM	28.4 µM	80.5 µM	51.3 µM
CCOC(=O)C#Cc1c(CC(=O)OCC)nnn1[C@H]1O[C@@H](CO)[C@@H]2OC(C)(C)O[C@@H]21	4.1 µM	19.6 µM	7.73 µM	27.3 µM	11.4 µM	3.39 µM	33.2 µM	30.5 µM	7.02 µM	3.22 µM	2.06 µM	6.58 µM	2.79 µM	12.1 µM	3.33 µM	1.76 µM	15 µM	13.6 µM	2.52 µM	1.75 µM
Oc1ccc(N=Nc2ccc(N=Nc3ccccc3)cc2)cc1	10.1 µM	6.05 µM	11.9 µM	17.3 µM	3.64 µM	5.55 µM	6.16 µM	19.5 µM	12.9 µM	4.77 µM	1.99 µM	1.32 µM	0.351 µM	4.16 µM	1.7 µM	1.98 µM	1.97 µM	4.1 µM	0.855 µM	1.71 µM
C=C1CC[C@@H]2[C@](C)(COC(C)=O)[C@H](OC(C)=O)CC[C@@]2(C)[C@@H]1C/C=C1/C(=O)OC[C@H]1OC(C)=O	2.98 µM	4.34 µM	16.1 µM	3.92 µM	3.38 µM	13.3 µM	37.7 µM	23 µM	4.33 µM	4.21 µM	1.45 µM	2.02 µM	3.8 µM	1.93 µM	1.75 µM	3.81 µM	18.6 µM	6.22 µM	1.58 µM	2.17 µM
CN1CCn2c(c(Sc3ccc(C(=O)NO)cc3)c3ccccc32)C1=O	3.55 µM	3.64 µM	> 33.8 µM	5.67 µM	4.94 µM	5.29 µM	6.58 µM	4.36 µM	14.3 µM	4.33 µM	1.59 µM	1.89 µM	2.87 µM	2 µM	1.94 µM	2.09 µM	2.19 µM	1.35 µM	2.73 µM	1.87 µM
Cc1nn(-c2nc3ccccc3[nH]2)c2c1C(c1ccc3c(c1)OCO3)CC(=O)N2 (stereo not given)	4.73 µM	21.9 µM	0.214 µM	> 100 µM	32.6 µM	> 25.8 µM	5.55 µM	4.72 µM	> 100 µM	5.17 µM	2.24 µM	3.65 µM	0.0422 µM	5.43 µM	3.39 µM	3.14 µM	2.36 µM	2.13 µM	3.05 µM	2.38 µM
Clc1ccc(SCCCCCCCCCCSc2ccc(Cl)cc2)cc1	> 100 µM	> 70.4 µM	> 100 µM	> 78.3 µM	> 100 µM	> 77.9 µM	> 78.7 µM	> 100 µM	> 75.9 µM	> 70.7 µM	–	–	–	–	–	–	–	–	–	–
CNc1nc(N(C)C)nc(N(C)C)n1	> 100 µM and 1930 µM	> 100 µM and 4840 µM	> 100 µM and 7060 µM	> 100 µM and 3960 µM	> 100 µM and 2700 µM	> 100 µM and 4960 µM	> 100 µM and 3000 µM	> 100 µM and 1830 µM	> 100 µM and 2770 µM	> 100 µM and 2300 µM	> 100 µM and 809 µM	> 100 µM and 2790 µM	> 100 µM and 1810 µM	> 100 µM and 909 µM	> 100 µM and 1240 µM	> 100 µM and 2270 µM	> 100 µM and 894 µM	> 100 µM and 650 µM	> 100 µM and 936 µM	> 100 µM and 981 µM
COc1cc(-c2oc3c(OC)c(O)c(OC)c(O)c3c(=O)c2OC)ccc1O	> 100 µM	> 100 µM	> 100 µM	> 100 µM	> 100 µM	98.9 µM	> 100 µM	> 100 µM	> 100 µM	67.8 µM	–	–	–	–	–	–	–	–	–	–
C[CH2][Sn]([CH2]C)([O]C(=O)c1cccc(F)c1)[O][Sn]([CH2]C)([CH2]C)[O]C(=O)c1cccc(F)c1	32.5 µM	29.3 µM	> 100 µM	50.9 µM	30.5 µM	33.8 µM	> 100 µM	30.8 µM	43.3 µM	> 100 µM	17.8 µM	15.8 µM	31.9 µM	25.4 µM	16.7 µM	19.6 µM	33.8 µM	16.6 µM	21 µM	78.8 µM
C=CC(=O)Nc1cccc(C)c1Nc1ncc2cc(-c3c(Cl)c(OC)cc(OC)c3Cl)ccc2n1	24.9 µM	10.1 µM	7.61 µM	> 100 µM	55.6 µM	22.1 µM	11.5 µM	34.2 µM	> 100 µM	13.1 µM	6.36 µM	2.33 µM	1.76 µM	17.9 µM	12.7 µM	3.25 µM	1.64 µM	9.31 µM	4.21 µM	2.78 µM
COCCNC(=O)c1ccc(-c2nc3ccc4[nH]ncc4c3c3c2CCCC3)cc1	> 100 µM	16.2 µM	5.62 µM	> 100 µM	98.2 µM	> 100 µM	27.1 µM	31.1 µM	> 100 µM	37.3 µM	1.2 µM	2.12 µM	1.61 µM	6.05 µM	2.49 µM	1.09 µM	1.86 µM	2.41 µM	2.67 µM	3.85 µM
CC(=O)c1c[nH]cc1CO	> 10 µM	> 10 µM	> 10 µM	> 10 µM	> 10 µM	> 10 µM	> 10 µM	> 10 µM	> 10 µM	> 10 µM	–	–	–	–	–	–	–	–	–	–
N=C(N)c1ccc(-c2ccc(-c3cccs3)s2)nc1	2.79 µM	3.3 µM	4.13 µM	5.68 µM	3.65 µM	2.33 µM	0.449 µM	18.9 µM	4.47 µM	2.31 µM	1.38 µM	1.67 µM	1.96 µM	1.26 µM	1.7 µM	1.03 µM	0.0334 µM	3.67 µM	1.93 µM	0.234 µM
CN(C)c1ccc(O)c2c1C[C@H]1C[C@H]3[C@H](N(C)C)C(=O)C(C(N)=O)=C(O)[C@@]3(O)C(=O)C1=C2O	35 µM	22.3 µM	40.6 µM	88.8 µM	48.4 µM	> 100 µM	20.7 µM	39.7 µM	94 µM	39.5 µM	3.86 µM	4.45 µM	10.7 µM	15.5 µM	7.52 µM	16 µM	3.45 µM	4.95 µM	4.02 µM	4.92 µM
c1ccc(SC(CCCCOC2CCCCO2)Sc2ccccc2)cc1 (stereo not given)	> 100 µM	> 100 µM	> 100 µM	> 100 µM	> 100 µM	> 100 µM	> 100 µM	> 100 µM	> 100 µM	> 100 µM	–	–	–	–	–	–	–	–	–	–
Cc1ccc(S(=O)(=O)c2c3[nH]c4ccccc4nc3n3c2nc2ccccc23)cc1	> 100 µM	> 100 µM	> 100 µM	> 100 µM	> 100 µM	> 100 µM	> 100 µM	> 100 µM	> 100 µM	> 100 µM	–	–	–	–	–	–	–	–	–	–
O=C(CCCCCCC(=O)Nc1ccc2c(c1)/C(=C/c1ccc[nH]1)C(=O)N2)NO	2.87 µM	26.5 µM	> 100 µM	5.75 µM	9.3 µM	7.78 µM	> 100 µM	14.8 µM	> 49.3 µM	5.51 µM	0.23 µM	2.37 µM	0.289 µM	0.755 µM	0.372 µM	0.795 µM	2.67 µM	1.88 µM	3.93 µM	0.354 µM

From PubChem BioAssay (NCI)
